Where “and” joins values, the source holds several entries; their conditions need not be identical. Equal values may be shown once. Read-outs that look alike come from different tables or passages of the source.
Columns and labels:
[1] = Metabolic stability in human liver microsomes; assay type: in vitro ADME
Description: (§1) Samples were analysed by LC–MS/MS as mentioned above.2.1 CLint, in vitro=0.693/t1/2/Cprotein, 2.2 CLint, in vivo=CLint, in vitro×Houston×LW/1000 2.3 andCLhep in vivo=HBF × fu ×CLint, in vivo/HBF + fu ×CLint, in vivo. Where Cprotein is microsomal protein concentration (mg ml^−1); Houston is Houston factor (45 mg of microsomal protein g^−1 liver); LW is liver weight (g) (per species); HBF is hepatic blood flow (ml min^−1) (per species); fu (two places) and later is unbound fraction (fu = 1 − %protein binding).

[2] = parameters: method as in earlier work; conditions: rat; ref results of the drug effect in the early stage of the cooperation laboratory; cited from earlier work
[3] = rats, i.v., cited from earlier work
[4] = Metabolic stability in dog liver microsomes; assay type: in vitro ADME; conditions: for half-life: pH 7.4
Description: as §1

[5] = Tissue distribution in Sprague Dawley rats; assay type: in vivo
Description: Concentrations of ET-26-HCl and ET-26-acid in biological samples were determined by liquid chromatography–tandem mass spectrometry (LC–MS/MS) after deproteinization with methanol. The bioanalytical method for simultaneous quantification of ET-26-HCl and ET-26-acid in the different matrix was fully validated according to FDA guidelines (electronic supplementary material, figure S1 and tables S1 and S2) in our previous study. Briefly, a 100 µl sample (plasma, tissue homogenate, bile, urine and faeces suspension) were spiked with 20 µl of IS solution and vortexed for 30 s. The mixture was then processed for protein precipitation with 300 µl methanol, followed by centrifugation at 12 000 r.p.m. for 5 min. Supernatant was collected and analysed by LC–MS/MS system.
Sprague Dawley (SD) rats (200–240 g) were provided by the Animal Facility at Sichuan University (Chengdu, China). All rats received a single 4.2 mg kg^−1 dose of ET-26-HCl intravenously. Rats were sacrificed and tissues, including heart, spleen, lung, intestine, colon, kidney, brain, fat, stomach, liver, muscle, testis and ovary were collected at 0, 1, 3, 6 and 10 h post-dosing (six rats/time-point). Tissue samples were rinsed thrice in ice cold saline, and blotted dry with filter papers. Weighed amount of tissues were homogenized in normal saline (thrice the tissue weight, w/v) and homogenates were stored at −80°C until analysis.

[6] = Metabolic stability in monkey liver microsomes; assay type: in vitro ADME
Description: as §1

[7] = dog liver microsomes, Cprotein 0.33 mg ml^−1

## COCCOC(=O)c1cncn1[C@H](C)c1ccccc1.Cl [ET-26-HCl, (R)-2-methoxyethyl1-(1-phenylethyl)-1H-imidazole-5-carboxylate hydrochloride]
[1]; human liver microsomes
  CLint, in vitro: 50.0 ml min g^−1 protein
  metabolic stability (in words): relatively stable
[1]; human liver microsomes, Cprotein 0.33 mg ml^−1
  CLint, in vitro: 50.0 ± 1.9 ml min^−1 g^−1 protein
[1]; human, from liver microsomes
  extrapolated CLhep in vivo: 1077 ± 11.8 mL/min
  extrapolated CLint, in vivo: 3823 ± 146.4 mL/min
[1]; pH 7.4, human liver microsomes, Cprotein 0.33 mg ml^−1
  half-life: 42 ± 1.7 min
[2]
  ED50: 2.1 mg/kg
[3]; 2.1 mg/kg
  AUC0-t: 28.47 ± 3.41 mg·min/L
  CL: 58 ± 11 mL/min/kg
  Cmax: 1820 ± 200 ng/mL
  Vd: 5.37 ± 0.72 L/kg
  t1/2: 65.4 ± 12.6 min
  λ: 0.66 ± 0.24 h⁻¹
[3]; 4.2 mg/kg
  AUC0-t: 41.70 ± 3.61 mg·min/L
  CL: 92 ± 8 mL/min/kg
  Cmax: 3310 ± 210 ng/mL
  Vd: 5.24 ± 1.33 L/kg
  t1/2: 39.6 ± 10.2 min
  λ: 1.20 ± 0.36 h⁻¹
[3]; 8.4 mg/kg
  AUC0-t: 110.92 ± 9.04 mg·min/L
  CL: 64 ± 5 mL/min/kg
  Cmax: 7010 ± 360 ng/mL
  Vd: 4.67 ± 0.99 L/kg
  t1/2: 51 ± 8.4 min
  λ: 0.78 ± 0.12 h⁻¹
[3]
  time until cleared after intravenous administration: ≤ 4 h
[4]; beagle, dog liver microsomes, Cprotein 0.33 mg ml^−1
  half-life: < 5 min
[4]; dog liver microsomes
  CLint, in vitro: 466 ml min g^−1 protein
  metabolic stability (in words): not metabolically stable
[4]; [7]
  CLint, in vitro: 466 ± 12.3 ml min^−1 g^−1 protein
  half-life: 4.5 ± 0.1 min
[4]; dog, assumed body weight 10 kg (printed order)
  extrapolated hepatic clearance normalized to body weight: 4.58 L·h/kg
[4]; dog, from liver microsomes
  extrapolated CLhep in vivo: 296 mL/min and 296 ± 0.35 mL/min
  extrapolated CLint, in vivo: 6712 ± 117 mL/min
[5]; i.v. 4.2 mg kg^−1
  time for complete excretion from kidney: ≤ 24 h
  time for elimination from the brain: ≤ 3 h
[5]; i.v. 4.2 mg kg^−1, at the onset
  concentration in the brain: 2570 ng/mL
[5]; i.v. 4.2 mg kg^−1 ET-26-HCl
  time for clearance from tissues: around 3 h
  tissues with the highest concentration: Adipose tissue and liver
[6]; monkey liver microsomes
  CLint, in vitro: 2216 ml min g^−1 protein
  metabolic stability (in words): not metabolically stable
  time to complete disappearance of ET-26-HCl: ≤ 15 min
[6]; monkey liver microsomes, Cprotein 0.33 mg ml^−1
  CLint, in vitro: 2216 ± 43.0 ml min^−1 g^−1 protein
[6]; monkey, from liver microsomes
  extrapolated CLhep in vivo: 168 ± 0.05 mL/min
